Measurements from US8377903B2, “Cladribine regimen for treating multiple sclerosis” (Merck Serono SA, priority 2004, dated 2013).

What was measured:
[1] = test system: patients with Chronic Progressive MS and Relapsing-Remitting MS; details: Phase II; 0.1 mg/kg/day i.v. 7 days x 4 months or 0.07 mg/kg/day s.c. 5 days x 6 months; cited from earlier work
[2] = test system: patients with primary progressive (PP) or secondary progressive (SP) multiple sclerosis; details: Phase III; 0.07 mg/kg/day s.c., repeated for 2 or 6 months; cited from earlier work
[3] = test system: patients with relapsing forms of clinically definite multiple sclerosis; assay: Oral Cladribine in the treatment of relapsing forms of MS (Example 1 protocol); format: in vivo, human
From the text: The efficacy and safety of oral Cladribine administration, eventually multi-dose administration, according to the invention can be assessed for example following the protocol below:
A study of sixty patients with relapsing forms of clinically definite multiple sclerosis is undertaken. Each patient is first examined for normal hepatic, renal, and bone marrow functioning to establish baseline values.
Patients are selected from Male or Female, between 18 and 55 years of age who had one or more relapses within the prior 12 months. Female patients are non-pregnant female.
Each of the patients in Groups 2 and 3 receives 3 mg or 10 mg 2-CdA (1, 2 or 3 administration(s) a day depending on the patient's weight) combined in cyclodextrin formulation as described in WO 2004/087101, Example 3. The Compositions of the Cladribine formulations in 3 mg or 10 mg 2-CdA tablets containing hydroxypropyl-beta-cyclodextrin are listed in Table 2 below:
In Group 1 patients receive a placebo (saline) for 4 months followed by 8 months of no treatment.
Patients are monitored to determine whether there is any progression or improvement of brain lesions associated with progression of MS through MRI scans and neurological examination as described in Miller et al., 1996, above; Evans et al., 1997, above; Sipe et al., 1984, above; and Mattson, 2002, above. All patients have a baseline and MRI study (brain or spinal cord, according to localization of the lesions) at month 12.
The patient's disability progression and the time for having a first relapse are monitored as well as the proportion of relapse-fee patients at 24 months.
Lymphocyte markers and monocyte counts are monitored in the patients.

[4] = test system: patients with multiple sclerosis; details: with the highest doses; i.v. or s.c.; cited from earlier work
[5] = test system: patients with remitting-relapsing multiple sclerosis; details: 6 monthly courses of 5 days, total dose about 4-5.7 mg/kg, cited from earlier work
[6] = oral, succession of an induction treatment and maintenance treatments

Nc1nc(Cl)nc2c1ncn2[C@H]1C[C@H](O)[C@@H](CO)O1 [Cladribine, 2-chloro-2′ deoxyadenosine]
effects on EDSS, SNRS scores and MRI findings [1]: positive effects
MRI-measured brain lesions [2]: positive on the significant reduction of MRI-measured brain lesions
brain lesions (MRI scans) ([3]; Groups 2 and 3: oral 2-CdA total dose 1.75 mg/kg or 3.5 mg/kg): decrease in brain lesions
adverse effects [3, 6]: no severe adverse effect is observed
efficacy of regimen on brain lesions [3, 6]: efficient in decreasing brain lesions
adverse effects (AEs) [4]: increased incidence of infections related to compromised immune function or myelosuppression
therapeutic efficacy of oral regimen versus i.v. infusion therapy [5]: questioned
side effects versus i.v. infusion study ([5]; oral): less severe
